In patent US4551445A, “Derivatives of arginine vasopressin antagonists” (The Medical College of Ohio, priority 1983, dated 1985):
Starred links: 1 amine or outer side, 2 acyl side, 3 side chain; linkers in the order of their positions; H or OH if unused. Positions of bridges follow the written chain, without caps; N, C: chain ends. Non-standard residues stand in square brackets, D forms with d. Residues, ends and D or L forms follow the SMILES beside them. X1 = O=C(CC1(S[*:2])CCCCC1)[*:1]; Nle = CCCC[C@H](N)C(=O)O; Orn = NCCC[C@H](N)C(=O)O

Columns and labels:
[1] = system: antidiuretic response to arginine vasopressin (ADH); assay: Anti-antidiuretic: antagonism of the antidiuretic response to subsequent injections of vasopressin; format: in vivo, rats; details: for Anti-Antidiuretic pA2: estimated in vivo pA2, volume of distribution 67 ml/kg; for Anti-Antidiuretic ED: effective dose
Procedure: Activity as antidiuretic agonists was determined by intravenous injection of the compounds being evaluated in ethanol-anesthesized water-loaded rats in accordance with Sawyer, Endocrinology, vol. 63 (1958) at 694. Antagonism of the response to subsequent injections of vasopressin was tested as described by Sawyer et al., Science, vol. 212 (1981) at 49.
(§1) Antagonistic potencies were determined and expressed as "effective doses" and pA2 values. The "effective dose" is defined as the dose (in nanomoles per kilogram) that reduces the response seen from 2x units of agonist injected 20 min after the dose of antagonist to the response with 1x units of agonist. Estimated in vivo "pA2 " values represent the negative logarithms of the effective doses, divided by the estimated volume of distribution (67 ml/kg).

[2] = system: vasopressor response to arginine vasopressin; assay: Antivasopressor: antagonism to the vasopressor response (Dyckes et al.); format: in vivo; details: for Antivasopressor pA2: Table 1, estimated in vivo pA2; for Antagonistic Activities Antivasopressor pA2: table; for Antivasopressor Potency ED / AD/VP: Table 2; for Antivasopressor Potency ED: effective dose; for AD/VP: ratio, values fit antivasopressor ED / anti-antidiuretic ED
Procedure: Antagonism to the vasopressor response was estimated in accordance with Dyckes et al., J. Med. Chem., vol. 17 (1974) at 969. The values are expressed as pA2 values, defined as in Schild et al., Br. J. Pharmacol., vol. 2 (1947) at 189.
as §1

Molecule | Anti-Antidiuretic pA2 ([1]; Table 1) | Antivasopressor pA2 [2] | Anti-Antidiuretic pA2 ([1]; Table 2) | also measured
COc1ccc(C[C@@H]2NC(=O)CC3(CCCCC3)SSC[C@H](C(=O)N3CCC[C@H]3C(=O)N[C@@H](CCCNC(=N)N)C(=O)NCC(N)=O)NC(=O)[C@H](CC(N)=O)NC(=O)[C@H](CCC(N)=O)NC(=O)[C@H](Cc3ccccc3)NC2=O)cc1 [d(CH2)5 Tyr(Me)^2 D-Cys^6 AVP] (Y(Me)FQN[dC]PRG-NH2; linker N-5 via X1) | 5.5 | 7.87 ± 0.09 | – | –
COc1ccc(C[C@H]2NC(=O)CC3(CCCCC3)SSC[C@@H](C(=O)N3CCC[C@H]3C(=O)N[C@@H](CCCNC(=N)N)C(=O)NCC(N)=O)NC(=O)[C@H](CC(N)=O)NC(=O)[C@H](CCC(N)=O)NC(=O)[C@H](Cc3ccccc3)NC2=O)cc1 [d(CH2)5 [D-Tyr(Me)^2]AVP, [1-(β-mercapto-β,β-cyclopentamethylenepropionic acid), 2-D-(O-methyl)tyrosine]-arginine vasopressin] ([dY](Me)FQNCPRG-NH2; linker N-5 via X1) | 6.98 ± 0.08 | 8.27 ± 0.02 | – | –
CCOc1ccc(C[C@@H]2NC(=O)CC3(CCCCC3)SSC[C@@H](C(=O)N3CCC[C@H]3C(=O)N[C@@H](CCCNC(=N)N)C(=O)NCC(N)=O)NC(=O)[C@H](CC(N)=O)NC(=O)[C@H](CCC(N)=O)NC(=O)[C@H](Cc3ccccc3)NC2=O)cc1 [d(CH2)5 Tyr(Et)AVP, reference compound] (Y(Et)FQNCPRG-NH2; linker N-5 via X1) | – | – | – | Antagonistic Activities Antivasopressor pA2 [2]: 8.47 ± 0.04
CCOc1ccc(C[C@H]2NC(=O)CC3(CCCCC3)SSC[C@@H](C(=O)N3CCC[C@@H]3C(=O)N[C@@H](CCCNC(=N)N)C(=O)NCC(N)=O)NC(=O)[C@H](CC(N)=O)NC(=O)[C@H](C(C)C)NC(=O)[C@H](Cc3ccccc3)NC2=O)cc1 [d(CH2)5 D-Tyr(Et)^2 D-Pro^7 VAVP] ([dY](Et)FVNC[dP]RG-NH2; linker N-5 via X1) | 7.64 ± 0.08 | 8.10 ± 0.06 | – | –
CCOc1ccc(C[C@H]2NC(=O)CC3(CCCCC3)SSC[C@@H](C(=O)N3CCC[C@H]3C(=O)N[C@@H](CCCNC(=N)N)C(=O)NCC(N)=O)NC(=O)[C@H](CC(N)=O)NC(=O)[C@H](C(C)C)NC(=O)[C@H](Cc3ccccc3)NC2=O)cc1 [d(CH2)5 --D-Tyr(Et)VAVP] ([dY](Et)FVNCPRG-NH2; linker N-5 via X1) | 7.81 ± 0.07 | 8.22 ± 0.12 | – | –
CCOc1ccc(C[C@@H]2NC(=O)CC3(CCCCC3)SSC[C@@H](C(=O)N3CCC[C@@H]3C(=O)N[C@@H](CCCNC(=N)N)C(=O)NCC(N)=O)NC(=O)[C@H](CC(N)=O)NC(=O)[C@H](C(C)C)NC(=O)[C@H](Cc3ccccc3)NC2=O)cc1 [d(CH2)5 Tyr(Et)^2 D-Pro^7 VAVP] (Y(Et)FVNC[dP]RG-NH2; linker N-5 via X1) | 6.32 ± 0.11 | 8.23 ± 0.13 | – | –
COc1ccc(C[C@@H]2NC(=O)CC3(CCCCC3)SSC[C@@H](C(=O)N3CCC[C@H]3C(=O)N[C@@H](CCCNC(=N)N)C(=O)NCC(N)=O)NC(=O)[C@H](CC(N)=O)NC(=O)[C@H](CCC(N)=O)NC(=O)[C@H](Cc3ccccc3)NC2=O)cc1 [d(CH2)5 Tyr(Me)AVP, [1-(β-mercapto-β,β-cyclopentamethylenepropionic acid), 2-O-methyltyrosine]-arginine vasopressin, reference compound] (Y(Me)FQNCPRG-NH2; linker N-5 via X1) | – | 8.62 ± 0.03 | – | Antagonistic Activities Antivasopressor pA2 [2]: 8.62 ± 0.03
[1-(β-mercapto-β,β-cyclopentamethylenepropionic acid), 2-D-phenylalanine, 4-aminobutyric acid]-arginine vasopressin [d(CH 2)5 D-Phe^2 Abu^4 AVP] | – | – | 7.96 | Anti-Antidiuretic ED ([1]; Table 2): 0.77 ± 0.12 nmol/kg; Antivasopressor Potency ED [2]: 1.4 ± 0.3 nmol/kg; AD/VP [2]: 1.8
CC[C@@H](C)[C@H]1NC(=O)CC2(CCCCC2)SSC[C@@H](C(=O)N2CCC[C@H]2C(=O)N[C@@H](CCCNC(=N)N)C(=O)NCC(N)=O)NC(=O)[C@H](CC(N)=O)NC(=O)[C@H]([C@@H](C)O)NC(=O)[C@H](Cc2ccccc2)NC1=O [d(CH2)5 D-Ile^2 Thr^4 AVP, [1-(β-mercapto-β,β-cyclopentamethylenepropionic acid), 2-D-isoleucine, 4-threonine]-arginine vasopressin] ([dI]FTNCPRG-NH2; linker N-5 via X1) | – | – | 7.91 | –
COc1ccc(C[C@@H]2NC(=O)CC3(CCCCC3)SSC[C@@H](C(=O)N3CCC[C@H]3C(=O)N[C@H](CCCNC(=N)N)C(=O)NCC(N)=O)NC(=O)[C@H](CC(N)=O)NC(=O)[C@H](C(C)C)NC(=O)[C@H](Cc3ccccc3)NC2=O)cc1 [d(CH2)5 Tyr(Me)VDAVP, [1-(β-mercapto-β,β-cyclopentamethylenepropionic acid), 2-O-methyltyrosine, 4-valine, 8-D-arginine]vasopressin] (Y(Me)FVNCP[dR]G-NH2; linker N-5 via X1) | 6.68 ± 0.11 | 8.44 ± 0.07 | – | –
COc1ccc(C[C@H]2NC(=O)CC3(CCCCC3)SSC[C@@H](C(=O)N3CCC[C@H]3C(=O)N[C@@H](CCCNC(=N)N)C(=O)NCC(N)=O)NC(=O)[C@H](CC(N)=O)NC(=O)[C@H](C(C)C)NC(=O)[C@H](Cc3ccccc3)NC2=O)cc1 [d(CH2)5 --D-Tyr(Me)VAVP] ([dY](Me)FVNCPRG-NH2; linker N-5 via X1) | 7.77 ± 0.07 | 8.48 ± 0.08 | – | –
CC[C@@H](C)[C@H]1NC(=O)CC2(CCCCC2)SSC[C@@H](C(=O)N2CCC[C@H]2C(=O)N[C@@H](CCCN)C(=O)NCC(N)=O)NC(=O)[C@H](CC(N)=O)NC(=O)[C@H](C(C)C)NC(=O)[C@H](Cc2ccccc2)NC1=O [d(CH2)5 D-Ile^2 Val^4 Orn^8 VP] ([dI]FVNCP[Orn]G-NH2; linker N-5 via X1) | – | – | 7.66 | –
[1-(β-mercapto-β,β-cyclopentamethylenepropionic acid), 2-D-phenylalanine, 4-leucine, 7-hydroxyproline]-arginine vasopressin [d(CH2)5 D-Phe^2 Ile^4 Hy-Pro^7 AVP] | – | – | 7.74 | Anti-Antidiuretic ED ([1]; Table 2): 1.3 ± 0.3 nmol/kg; Antivasopressor Potency ED [2]: 0.9 ± 0.2 nmol/kg; AD/VP [2]: 0.7
CC[C@@H](C)[C@H]1NC(=O)CC2(CCCCC2)SSC[C@@H](C(=O)N2CCC[C@H]2C(=O)N[C@@H](CCCNC(=N)N)C(=O)NCC(N)=O)NC(=O)[C@H](CC(N)=O)NC(=O)[C@H](C)NC(=O)[C@H](Cc2ccccc2)NC1=O [d(CH2)5 D-Ile^2 Ala^4 AVP, [1-(β-mercapto-β,β-cyclopentamethylenepropionic acid), 2-D-isoleucine, 4-alanine]-arginine vasopressin] ([dI]FANCPRG-NH2; linker N-5 via X1) | – | – | 7.76 | –
N=C(N)NCCC[C@H](NC(=O)[C@@H]1CCCN1C(=O)[C@@H]1CSSC2(CCCCC2)CC(=O)N[C@H](Cc2ccccc2)C(=O)N[C@@H](Cc2ccccc2)C(=O)N[C@@H](CCC(N)=O)C(=O)N[C@@H](CC(N)=O)C(=O)N1)C(=O)NCC(N)=O [d(CH2)5 D-Phe^2 AVP, [1-(β-mercapto-β,β-cyclopentamethylenepropionic acid), 2-D-phenylalanine]-arginine vasopressin] ([dF]FQNCPRG-NH2; linker N-5 via X1) | – | – | 7.21 | –
CC(C)[C@@H]1NC(=O)[C@H](Cc2ccccc2)NC(=O)[C@@H](Cc2ccccc2)NC(=O)CC2(CCCCC2)SSC[C@@H](C(=O)N2CCC[C@H]2C(=O)N[C@@H](CCCNC(=N)N)C(=O)NCC(N)=O)NC(=O)[C@H](CC(N)=O)NC1=O [d(CH2)5 D-Phe^2 VAVP] ([dF]FVNCPRG-NH2; linker N-5 via X1) | – | – | 8.06 | –
CCOc1ccc(C[C@@H]2NC(=O)CC3(CCCCC3)SSC[C@@H](C(=O)N3CCC[C@H]3C(=O)N[C@H](CCCNC(=N)N)C(=O)NCC(N)=O)NC(=O)[C@H](CC(N)=O)NC(=O)[C@H](C(C)C)NC(=O)[C@H](Cc3ccccc3)NC2=O)cc1 [d(CH2)5 Tyr(Et)VDAVP] (Y(Et)FVNCP[dR]G-NH2; linker N-5 via X1) | 7.10 ± 0.08 | 8.31 ± 0.05 | – | –
CCCC[C@@H]1NC(=O)[C@H](Cc2ccccc2)NC(=O)[C@@H](Cc2ccccc2)NC(=O)CC2(CCCCC2)SSC[C@@H](C(=O)N2CCC[C@H]2C(=O)N[C@@H](CCCNC(=N)N)C(=O)NCC(N)=O)NC(=O)[C@H](CC(N)=O)NC1=O [d(CH2)5 D-Phe^2 Nle^4 AVP, [1-(β-mercapto-β,β-cyclopentamethylenepropionic acid), 2-D-phenylalanine, 4-norleucine]-arginine vasopressin] ([dF]F[Nle]NCPRG-NH2; linker N-5 via X1) | – | – | 7.12 | –
